Assay results taken from US9796711B2, “Substituted pyrazolo[3,4-b]pyridin-6-carboxylic acids and method of use” (AbbVie S.àr.l., priority 2015, dated 2017).

Experiments:
ΔF508-CFTR [1] = target: T1, ΔF508-CFTR (Homo sapiens, UniProt P13569, DEL508-508); assay: CFTR cell surface levels using HRP-tagged ΔF508-CFTR expressing CFBE cells, in the presence of a co-corrector; assay type: cell-based
T1 construct: host or cells: CFBE41o-, doxycycline-inducible
In short: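 Cells were seeded with 0.5 μg/mL doxycycline and held 68 h at 37 °C. Test compounds plus 3 μM co-corrector (final 0.1% DMSO) were then added for 20 h at 33 °C. Washed cells received HRP substrate, and luminescence was normalized between DMSO and 3 μM co-corrector controls.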

ΔF508-CFTR [2] = target: T1, ΔF508-CFTR; assay: CFTR cell surface levels using HRP-tagged ΔF508-CFTR expressing CFBE cells, intrinsic corrector capacity; assay type: cell-based
In short: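 Here the cells express ΔF508-CFTR with horseradish peroxidase inserted in extracellular loop 4, so only rescued channel at the surface gives luminescent signal. Compounds act on their own, 20 h at the reduced temperature of 33 °C; values are percent activity relative to DMSO and a 3 μM corrector.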

[3] = HRP-tagged ΔF508-CFTR expressing CFBE cells, in the presence of 3 μM co-corrector
[4] = HRP-tagged ΔF508-CFTR expressing CFBE cells, in the presence of 3 μM co-corrector, read-out: EC50
[5] = HRP-tagged ΔF508-CFTR expressing CFBE cells, intrinsic corrector capacity (no co-corrector), 33° C., 20 hours
[6] = HRP-tagged ΔF508-CFTR expressing CFBE cells, intrinsic corrector capacity (no co-corrector), 33° C., 20 hours, read-out: EC50

T1 sequence (P13569 with tags, fused parts or gaps DEL508-508): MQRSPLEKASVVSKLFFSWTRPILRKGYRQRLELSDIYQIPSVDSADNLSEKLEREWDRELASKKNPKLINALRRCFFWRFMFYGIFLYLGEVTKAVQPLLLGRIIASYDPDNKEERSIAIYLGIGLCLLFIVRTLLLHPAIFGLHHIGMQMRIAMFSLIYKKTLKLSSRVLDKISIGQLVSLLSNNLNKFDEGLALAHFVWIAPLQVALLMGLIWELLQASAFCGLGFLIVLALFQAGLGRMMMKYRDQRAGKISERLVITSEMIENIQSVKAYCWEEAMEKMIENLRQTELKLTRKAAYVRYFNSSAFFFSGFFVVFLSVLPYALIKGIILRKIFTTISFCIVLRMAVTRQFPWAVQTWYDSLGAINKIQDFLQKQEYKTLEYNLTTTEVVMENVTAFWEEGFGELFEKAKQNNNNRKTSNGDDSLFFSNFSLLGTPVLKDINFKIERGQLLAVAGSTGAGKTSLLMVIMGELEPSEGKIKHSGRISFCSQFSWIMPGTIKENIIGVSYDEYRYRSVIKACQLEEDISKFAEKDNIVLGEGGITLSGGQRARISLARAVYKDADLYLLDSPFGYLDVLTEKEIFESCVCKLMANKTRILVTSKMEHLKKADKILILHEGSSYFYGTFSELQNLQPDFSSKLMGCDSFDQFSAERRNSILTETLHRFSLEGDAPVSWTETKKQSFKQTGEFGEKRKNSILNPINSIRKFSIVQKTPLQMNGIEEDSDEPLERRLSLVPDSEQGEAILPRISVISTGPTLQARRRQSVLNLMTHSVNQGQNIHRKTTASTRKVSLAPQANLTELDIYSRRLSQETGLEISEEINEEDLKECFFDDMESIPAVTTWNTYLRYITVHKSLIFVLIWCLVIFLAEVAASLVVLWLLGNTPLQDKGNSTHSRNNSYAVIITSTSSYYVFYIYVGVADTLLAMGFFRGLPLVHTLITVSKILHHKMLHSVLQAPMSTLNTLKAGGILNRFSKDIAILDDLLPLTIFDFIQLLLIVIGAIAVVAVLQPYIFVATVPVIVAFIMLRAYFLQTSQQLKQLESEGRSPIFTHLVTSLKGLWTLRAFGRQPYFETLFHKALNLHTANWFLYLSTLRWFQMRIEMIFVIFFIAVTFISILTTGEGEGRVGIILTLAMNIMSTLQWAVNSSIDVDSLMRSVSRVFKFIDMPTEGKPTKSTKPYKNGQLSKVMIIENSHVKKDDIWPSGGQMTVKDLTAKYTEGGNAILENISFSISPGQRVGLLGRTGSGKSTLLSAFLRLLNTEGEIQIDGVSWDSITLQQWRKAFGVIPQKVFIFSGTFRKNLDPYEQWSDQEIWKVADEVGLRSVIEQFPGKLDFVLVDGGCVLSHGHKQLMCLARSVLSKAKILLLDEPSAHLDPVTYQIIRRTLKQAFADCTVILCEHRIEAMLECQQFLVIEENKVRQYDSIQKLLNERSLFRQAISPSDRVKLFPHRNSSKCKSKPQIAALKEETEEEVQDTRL

SMILES: CN(C[C@H]1CCN(c2cc(C(=O)O)nc3c2c(C2CCC2)nn3-c2ccccc2)C1)C(=O)OC(C)(C)C [compound 675, 4-[(3S)-3-{[(tert-butoxycarbonyl)(methyl)amino]methyl}pyrrolidin-1-yl]-3-cyclobutyl-1-phenyl-1H-pyrazolo[3,4-b]pyridine-6-carboxylic acid]
- % Activation (ΔF508-CFTR [1]; [3]): 303.65%
- EC50 (ΔF508-CFTR [1]; [4]): 1050 nM
- % Activation (ΔF508-CFTR [2]; [5]): 118.8%
- EC50 (ΔF508-CFTR [2]; [6]): 659 nM

SMILES: CNC[C@@H]1CCN(c2cc(C(=O)O)nc3c2c(C2CCC2)nn3-c2ccccc2)C1 [compound 676, 3-cyclobutyl-4-{(3S)-3-[(methylamino)methyl]pyrrolidin-1-yl}-1-phenyl-1H-pyrazolo[3,4-b]pyridine-6-carboxylic acid]
- % Activation (ΔF508-CFTR [1]; [3]): 164.55%
- EC50 (ΔF508-CFTR [1]; [4]): 892 nM
- % Activation (ΔF508-CFTR [2]; [5]): 35.03%
- EC50 (ΔF508-CFTR [2]; [6]): 5000 nM

SMILES: COCC1CCN(c2cc(C(=O)O)nc3c2c(C(C)C)nn3-c2cc(C)nc(C)c2)CC1 [compound 677, 1-(2,6-dimethylpyridin-4-yl)-4-[4-(methoxymethyl)piperidin-1-yl]-3-(propan-2-yl)-1H-pyrazolo[3,4-b]pyridine-6-carboxylic acid]
- % Activation (ΔF508-CFTR [1]; [3]): 260.45%
- EC50 (ΔF508-CFTR [1]; [4]): 6550 nM
- % Activation (ΔF508-CFTR [2]; [5]): 67.38%
- EC50 (ΔF508-CFTR [2]; [6]): 1570 nM

SMILES: COCC1CCN(c2cc(C(=O)O)nc3c2c(C2CCC2)nn3-c2ccnc(OC)c2)CC1 [compound 678, 3-cyclobutyl-4-[4-(methoxymethyl)piperidin-1-yl]-1-(2-methoxypyridin-4-yl)-1H-pyrazolo[3,4-b]pyridine-6-carboxylic acid]
- % Activation (ΔF508-CFTR [1]; [3]): 373.3%
- EC50 (ΔF508-CFTR [1]; [4]): 91.8 nM
- % Activation (ΔF508-CFTR [2]; [5]): 181.5%
- EC50 (ΔF508-CFTR [2]; [6]): 230 nM

SMILES: O=C(O)c1cc(N2CCN(CC3CCCO3)CC2)c2c(C3CCC3)nn(-c3ccccc3)c2n1 (stereo not shown) [compound 681, 3-cyclobutyl-4-{4-[(oxolan-2-yl)methyl]piperazin-1-yl}-1-phenyl-1H-pyrazolo[3,4-b]pyridine-6-carboxylic acid]
- % Activation (ΔF508-CFTR [1]; [3]): 373.05%
- EC50 (ΔF508-CFTR [1]; [4]): 197 nM
- % Activation (ΔF508-CFTR [2]; [5]): 220.95%
- EC50 (ΔF508-CFTR [2]; [6]): 408 nM

SMILES: COCC(C)N1CCN(c2cc(C(=O)O)nc3c2c(C2CCC2)nn3-c2ccccc2)CC1 (stereo not shown) [compound 682, 3-cyclobutyl-4-[4-(1-methoxypropan-2-yl)piperazin-1-yl]-1-phenyl-1H-pyrazolo[3,4-b]pyridine-6-carboxylic acid]
- % Activation (ΔF508-CFTR [1]; [3]): 368.9%
- EC50 (ΔF508-CFTR [1]; [4]): 116 nM
- % Activation (ΔF508-CFTR [2]; [5]): 172.9%
- EC50 (ΔF508-CFTR [2]; [6]): 180 nM

SMILES: O=C(O)c1cc(N2CCN(CC3OCCO3)CC2)c2c(C3CCC3)nn(-c3ccccc3)c2n1 [compound 684, 3-cyclobutyl-4-{4-[(1,3-dioxolan-2-yl)methyl]piperazin-1-yl}-1-phenyl-1H-pyrazolo[3,4-b]pyridine-6-carboxylic acid]
- % Activation (ΔF508-CFTR [1]; [3]): 384.65%
- EC50 (ΔF508-CFTR [1]; [4]): 236 nM
- % Activation (ΔF508-CFTR [2]; [5]): 230.2%
- EC50 (ΔF508-CFTR [2]; [6]): 380 nM

SMILES: COCCOC1CCN(c2cc(C(=O)O)nc3c2c(C2CCC2)nn3-c2ccccc2)CC1 [compound 685, 3-cyclobutyl-4-[4-(2-methoxyethoxy)piperidin-1-yl]-1-phenyl-1H-pyrazolo[3,4-b]pyridine-6-carboxylic acid]
- % Activation (ΔF508-CFTR [1]; [3]): 510.3%
- EC50 (ΔF508-CFTR [1]; [4]): 245 nM
- % Activation (ΔF508-CFTR [2]; [5]): 260.5%
- EC50 (ΔF508-CFTR [2]; [6]): 164 nM

SMILES: O=C(O)c1cc(N2CCC(CN3CCCCC3)CC2)c2c(C3CCC3)nn(-c3ccccc3)c2n1 [compound 686, 3-cyclobutyl-1-phenyl-4-{4-[(piperidin-1-yl)methyl]piperidin-1-yl}-1H-pyrazolo[3,4-b]pyridine-6-carboxylic acid]
- % Activation (ΔF508-CFTR [1]; [3]): 431.1%
- EC50 (ΔF508-CFTR [1]; [4]): 237 nM
- % Activation (ΔF508-CFTR [2]; [5]): 240.4%
- EC50 (ΔF508-CFTR [2]; [6]): 1670 nM

SMILES: CC1CN(C2CCN(c3cc(C(=O)O)nc4c3c(C3CCC3)nn4-c3ccccc3)CC2)CC(C)O1 (stereo not shown) [compound 688, 3-cyclobutyl-4-[4-(2,6-dimethylmorpholin-4-yl)piperidin-1-yl]-1-phenyl-1H-pyrazolo[3,4-b]pyridine-6-carboxylic acid]
- % Activation (ΔF508-CFTR [1]; [3]): 532.6%
- EC50 (ΔF508-CFTR [1]; [4]): 247 nM
- % Activation (ΔF508-CFTR [2]; [5]): 322.5%
- EC50 (ΔF508-CFTR [2]; [6]): 247 nM

SMILES: CCN(CC)C1CCN(c2cc(C(=O)O)nc3c2c(C2CCC2)nn3-c2ccccc2)CC1 [compound 689, 3-cyclobutyl-4-[4-(diethylamino)piperidin-1-yl]-1-phenyl-1H-pyrazolo[3,4-b]pyridine-6-carboxylic acid]
- % Activation (ΔF508-CFTR [1]; [3]): 329%
- EC50 (ΔF508-CFTR [1]; [4]): 803 nM
- % Activation (ΔF508-CFTR [2]; [5]): 182.7%
- EC50 (ΔF508-CFTR [2]; [6]): 1570 nM

SMILES: CN(CCCN(C)C1CCCCC1)c1cc(C(=O)O)nc2c1c(C1CCC1)nn2-c1ccccc1 [compound 690, 3-cyclobutyl-4-[{3-[cyclohexyl(methyl)amino]propyl}(methyl)amino]-1-phenyl-1H-pyrazolo[3,4-b]pyridine-6-carboxylic acid]
- % Activation (ΔF508-CFTR [1]; [3]): 318.25%
- EC50 (ΔF508-CFTR [1]; [4]): 2760 nM
- % Activation (ΔF508-CFTR [2]; [5]): 136.1%
- EC50 (ΔF508-CFTR [2]; [6]): 1670 nM

SMILES: CC(C)CN1C[C@@H]2CN(c3cc(C(=O)O)nc4c3c(C3CCC3)nn4-c3ccccc3)C[C@@H]2C1 [compound 692, 3-cyclobutyl-4-[(3aR,6aS)-5-(2-methylpropyl)hexahydropyrrolo[3,4-c]pyrrol-2(1H)-yl]-1-phenyl-1H-pyrazolo[3,4-b]pyridine-6-carboxylic acid]
- % Activation (ΔF508-CFTR [1]; [3]): 381.4%
- EC50 (ΔF508-CFTR [1]; [4]): 931 nM
- % Activation (ΔF508-CFTR [2]; [5]): 208.1%
- EC50 (ΔF508-CFTR [2]; [6]): 1670 nM

SMILES: O=C(O)c1cc(N2CCC(N3CCCCC3)CC2)c2c(C3CCC3)nn(-c3ccc(F)cc3)c2n1 [compound 693, 4-([1,4′-bipiperidin]-1′-yl)-3-cyclobutyl-1-(4-fluorophenyl)-1H-pyrazolo[3,4-b]pyridine-6-carboxylic acid]
- % Activation (ΔF508-CFTR [1]; [3]): 392.45%
- EC50 (ΔF508-CFTR [1]; [4]): 325 nM
- % Activation (ΔF508-CFTR [2]; [5]): 185.9%
- EC50 (ΔF508-CFTR [2]; [6]): 1270 nM

SMILES: COCCN1CCN(C2CCN(c3cc(C(=O)O)nc4c3c(C3CCC3)nn4-c3ccccc3)CC2)CC1 [compound 694, 3-cyclobutyl-4-{4-[4-(2-methoxyethyl)piperazin-1-yl]piperidin-1-yl}-1-phenyl-1H-pyrazolo[3,4-b]pyridine-6-carboxylic acid]
- % Activation (ΔF508-CFTR [1]; [3]): 421.9%
- EC50 (ΔF508-CFTR [1]; [4]): 535 nM
- % Activation (ΔF508-CFTR [2]; [5]): 177.4%
- EC50 (ΔF508-CFTR [2]; [6]): 487 nM

SMILES: CCOCCN1CCN(C2CCN(c3cc(C(=O)O)nc4c3c(C(C)C)nn4-c3ccc(F)cc3)CC2)CC1 [compound 745, 4-{4-[4-(2-ethoxyethyl)piperazin-1-yl]piperidin-1-yl}-1-(4-fluorophenyl)-3-(propan-2-yl)-1H-pyrazolo[3,4-b]pyridine-6-carboxylic acid]
- % Activation (ΔF508-CFTR [1]; [3]): 457.5%
- EC50 (ΔF508-CFTR [1]; [4]): 191 nM
- % Activation (ΔF508-CFTR [2]; [5]): 239.3%
- EC50 (ΔF508-CFTR [2]; [6]): 573 nM

SMILES: CC(C)c1nn(-c2ccc(F)cc2)c2nc(C(=O)O)cc(N3CCC(N4CCN(C)CC4)CC3)c12 [compound 753, 1-(4-fluorophenyl)-4-[4-(4-methylpiperazin-1-yl)piperidin-1-yl]-3-(propan-2-yl)-1H-pyrazolo[3,4-b]pyridine-6-carboxylic acid]
- % Activation (ΔF508-CFTR [1]; [3]): 377.6%
- EC50 (ΔF508-CFTR [1]; [4]): 301 nM
- % Activation (ΔF508-CFTR [2]; [5]): 215%
- EC50 (ΔF508-CFTR [2]; [6]): 1030 nM

SMILES: CN1CCN(C2CCN(c3cc(C(=O)O)nc4c3c(C3CCC3)nn4-c3ccccc3)CC2)CC1 [compound 757, 3-cyclobutyl-4-[4-(4-methylpiperazin-1-yl)piperidin-1-yl]-1-phenyl-1H-pyrazolo[3,4-b]pyridine-6-carboxylic acid]
- % Activation (ΔF508-CFTR [1]; [3]): 489.6%
- EC50 (ΔF508-CFTR [1]; [4]): 402 nM
- % Activation (ΔF508-CFTR [2]; [5]): 208.45%
- EC50 (ΔF508-CFTR [2]; [6]): 319 nM

SMILES: Cc1c(C(=O)O)nc2c(c(C(C)C)nn2-c2ccc(F)cc2)c1N1CCC(N2CCOCC2)CC1 [compound 763, 1-(4-fluorophenyl)-5-methyl-4-[4-(morpholin-4-yl)piperidin-1-yl]-3-(propan-2-yl)-1H-pyrazolo[3,4-b]pyridine-6-carboxylic acid]
- EC50 (ΔF508-CFTR [1]): 1670 nM
- % Activation (ΔF508-CFTR [1]; [3]): 276.3%
- EC50 (ΔF508-CFTR [2]): 1630 nM
- % Activation (ΔF508-CFTR [2]; HRP-tagged ΔF508-CFTR CFBE41o- cells, compounds alone (intrinsic corrector capacity), 20 hours at 33° C., positive control 3 μM corrector): 161.25%

SMILES: CC(C)Oc1nn(C2CCCCC2)c2nc(C(=O)O)cc(-c3ccc(C(=O)N4CCN(C)CC4)cc3)c12 [compound 764, 1-cyclohexyl-4-[4-(4-methylpiperazine-1-carbonyl)phenyl]-3-[(propan-2-yl)oxy]-1H-pyrazolo[3,4-b]pyridine-6-carboxylic acid]
- % Activation (ΔF508-CFTR [1]; [3]): 255.65%
- EC50 (ΔF508-CFTR [1]; [4]): 2410 nM
- % Activation (ΔF508-CFTR [2]; [5]): 85.92%
- EC50 (ΔF508-CFTR [2]; [6]): 3330 nM

SMILES: CC(C)c1nn(-c2ccc(F)cc2)c2nc(C(=O)O)cc(N3CC(N4CCOCC4)C3)c12 [compound 765, 1-(4-fluorophenyl)-4-[3-(morpholin-4-yl)azetidin-1-yl]-3-(propan-2-yl)-1H-pyrazolo[3,4-b]pyridine-6-carboxylic acid]
- % Activation (ΔF508-CFTR [1]; [3]): 181.3%
- EC50 (ΔF508-CFTR [1]; [4]): 738 nM
- % Activation (ΔF508-CFTR [2]; [5]): 45.48%
- EC50 (ΔF508-CFTR [2]; [6]): 1670 nM

SMILES: CCCN1CCCN(c2cc(C(=O)O)nc3c2c(C(C)C)nn3-c2ccc(F)cc2)CC1 [compound 766, 1-(4-fluorophenyl)-3-(propan-2-yl)-4-(4-propyl-1,4-diazepan-1-yl)-1H-pyrazolo[3,4-b]pyridine-6-carboxylic acid]
- % Activation (ΔF508-CFTR [1]; [3]): 213.4%
- EC50 (ΔF508-CFTR [1]; [4]): 1180 nM
- % Activation (ΔF508-CFTR [2]; [5]): 54.3%
- EC50 (ΔF508-CFTR [2]; [6]): 1670 nM
